{"source": "paper PMC12044458", "about": "(ACS Omega, 2025)", "key": {"[1]": {"tested_on": "Poly(I:C) HMW fluorescein (RNA, polymer, hypoxanthine (inosine) in place of every G of strand 1 (polyinosinic acid)) G/C", "test": "microscale thermophoresis", "settings": "PBS-T, PBS-T pH 7.4, 200 nM labelled Poly(I:C)"}, "[2]": {"tested_on": "Poly(I:C) Na^+ (RNA, polymer, hypoxanthine (inosine) in place of every G of strand 1 (polyinosinic acid)) G/C", "test": "fluorescence titration of compound emission", "settings": "PBS, <1% DMSO, 5 µM compound, per base pair"}, "[3]": {"tested_on": "Poly(I:C) Na^+ γ (RNA, polymer, hypoxanthine (inosine) in place of every G of strand 1 (polyinosinic acid); gamma-irradiated, possible strand breaks) G/C", "test": "fluorescence titration of compound emission", "settings": "PBS, 0 mM Mg2+, <1% DMSO, 5 µM compound, per base pair"}, "[4]": {"tested_on": "Poly(I:C) HMW (RNA, polymer, hypoxanthine (inosine) in place of every G of strand 1 (polyinosinic acid)) G/C", "test": "fluorescence titration of compound emission", "settings": "PBS, 0 mM Mg2+, <1% DMSO, 5 µM compound, per base pair"}, "[5]": {"tested_on": "Poly(I:C) Na^+ (RNA, polymer, hypoxanthine (inosine) in place of every G of strand 1 (polyinosinic acid)) G/C", "test": "UV melting", "settings": "PBS, 0 mM Mg2+, compound concentration not in material, per base"}, "[6]": {"tested_on": "Poly(I:C) HMW (RNA, polymer, hypoxanthine (inosine) in place of every G of strand 1 (polyinosinic acid)) G/C", "test": "UV melting", "settings": "PBS, 0 mM Mg2+, compound concentration not in material, per base"}, "human RNase [7]": {"target": "T1, human RNase", "T1 construct": "his-tag-labeled human RNase", "test": "microscale thermophoresis (MST)", "format": "binding"}, "human RNase [8]": {"target": "T1, human RNase", "test": "microscale thermophoresis (MST), two-site fit; Kd2 =[…]", "format": "binding"}, "human RNase [9]": {"target": "T1, human RNase", "test": "microscale thermophoresis (MST), two-site fit; Kd2 =[…]", "format": "binding", "remark": "listed apart in the source"}, "[10]": {"tested_on": "Poly(I:C) HMW (RNA, polymer, hypoxanthine (inosine) in place of every G of strand 1 (polyinosinic acid)) G/C", "test": "circular dichroism", "settings": "PBS, 0 mM Mg2+, 100 µM compound and 100 µM Poly(I:C)"}, "[11]": {"settings": "540 nm, 1:1 model, conditional constant, per base"}, "[12]": {"settings": "540 nm, 1:2 model, not a 1:1 Ka"}, "[13]": {"settings": "derived from two Tm (65 and 65)"}, "[14]": {"settings": "derived from two Tm (66 and 67)"}, "[15]": {"settings": "595 nm, 1:1 model, conditional constant, per base"}, "[16]": {"settings": "595 nm, 1:2 model, not a 1:1 Ka"}}}
{"smiles": "CN(C)[C@@H]1C(=O)C(C(N)=O)=C(O)[C@@]2(O)C(=O)C3=C(O)c4c(O)cccc4[C@@](C)(O)[C@H]3C[C@@H]12", "values": [{"measurement": "Kd", "setting": "[1]; ligand stock 1 mM", "value": "448.1 ± 86.4", "unit": "µM"}, {"measurement": "Log(K)", "setting": "[2]; 0 mM Mg2+, 549 nm, 1:1 model, conditional constant, per base", "value": "4.64 ± 0.96"}, {"measurement": "Log(K)", "setting": "[2]; 0 mM Mg2+, 549 nm, 1:2 model, not a 1:1 Ka", "value": "11.18 ± 0.99"}, {"measurement": "Log(K)", "setting": "[3]; 505 nm, 1:1 model, conditional constant, per base", "value": "4.37 ± 0.56"}, {"measurement": "Log(K)", "setting": "[3]; 505 nm, 1:2 model, not a 1:1 Ka", "value": "9.57 ± 0.71"}, {"measurement": "Log(K)", "setting": "[4]; 549 nm, 1:1 model, conditional constant, per base", "value": "5.02 ± 1.05"}, {"measurement": "Log(K)", "setting": "[4]; 549 nm, 1:2 model, not a 1:1 Ka", "value": "11.70 ± 1.37"}]}
{"smiles": "C[C@H]1c2cccc(O)c2C(O)=C2C(=O)[C@]3(O)C(O)=C(C(N)=O)C(=O)[C@@H](N(C)C)[C@@H]3[C@@H](O)[C@@H]21", "values": [{"measurement": "melting temperature shift (ΔTm)", "setting": "[5]; derived from two Tm (64 and 65)", "value": -1, "unit": "°C"}, {"measurement": "melting temperature shift (ΔTm)", "setting": "[6]; derived from two Tm (67 and 67)", "value": 0, "unit": "°C"}, {"measurement": "Kd", "setting": "[1]; ligand stock 1 mM", "value": "366.2 ± 74.9", "unit": "µM"}, {"measurement": "Log(K)", "setting": "[2]; 0 mM Mg2+, 540 nm, 1:2 model, not a 1:1 Ka", "value": "9.85 ± 0.99"}, {"measurement": "Log(K)", "setting": "[2]; 10 mM Mg2+ (MgSO4), 537 nm, 1:1 model, conditional constant, per base", "value": "5.39 ± 0.96"}, {"measurement": "Log(K)", "setting": "[3]; [11]", "value": "4.14 ± 0.57"}, {"measurement": "Log(K)", "setting": "[3]; [12]", "value": "10.39 ± 1.8"}, {"measurement": "Log(K)", "setting": "[4]; [11]", "value": "4.62 ± 0.3"}, {"measurement": "Log(K)", "setting": "[4]; [12]", "value": "11.34 ± 1.81"}]}
{"smiles": "COc1cccc2c1C(=O)c1c(O)c3c(c(O)c1C2=O)C[C@@](O)(C(=O)CO)C[C@@H]3O[C@H]1C[C@H](N)[C@H](O)[C@H](C)O1", "note": "[doxorubicin]", "values": [{"measurement": "melting temperature shift (ΔTm)", "setting": "[5]; [13]", "value": 0, "unit": "°C"}, {"measurement": "melting temperature shift (ΔTm)", "setting": "[6]; [14]", "value": -1, "unit": "°C"}, {"measurement": "Kd", "setting": "human RNase [7]", "value": "4.8 ± 2", "unit": "µM"}, {"measurement": "Kd", "setting": "[1]; ligand stock 0.25 mM, Kd above tested range", "value": "251 ± 22", "unit": "µM"}, {"measurement": "Log(K)", "setting": "[2]; 0 mM Mg2+, 595 nm, 1:1 model, conditional constant, per base", "value": "5.03 ± 0.75"}, {"measurement": "Log(K)", "setting": "[2]; 0 mM Mg2+, 595 nm, 1:2 model, not a 1:1 Ka", "value": "10.69 ± 1.14"}, {"measurement": "Log(K)", "setting": "[3]; [15]", "value": "4.50 ± 0.72"}, {"measurement": "Log(K)", "setting": "[3]; [16]", "value": "10.13 ± 1.23"}, {"measurement": "Log(K)", "setting": "[4]; [15]", "value": "5.21 ± 0.75"}, {"measurement": "Log(K)", "setting": "[4]; [16]", "value": "11.23 ± 1.10"}]}
{"smiles": "C[C@H]1c2cccc(O)c2C(=O)C2=C(O)[C@]3(O)C(=O)C(C(N)=O)=C(O)[C@@H](N(C)C)[C@@H]3[C@@H](O)[C@@H]21", "note": "[doxycycline]", "values": [{"measurement": "Kd", "setting": "human RNase [8]", "value": "0.149 ± 0.052", "unit": "µM"}]}
{"smiles": "CN(C)c1ccc(O)c2c1C[C@H]1C[C@H]3[C@H](N(C)C)C(O)=C(C(N)=O)C(=O)[C@@]3(O)C(O)=C1C2=O", "note": "[minocycline]", "values": [{"measurement": "melting temperature shift (ΔTm)", "setting": "[5]; [13]", "value": 0, "unit": "°C"}, {"measurement": "melting temperature shift (ΔTm)", "setting": "[6]; [14]", "value": -1, "unit": "°C"}, {"measurement": "Kd", "setting": "human RNase [9]", "value": "0.509 ± 0.118", "unit": "µM"}, {"measurement": "binding", "setting": "[10]", "value": "yes"}]}
{"smiles": "CN(C)[C@@H]1C(O)=C(C(N)=O)C(=O)[C@@]2(O)C(O)=C3C(=O)c4c(O)cccc4[C@@](C)(O)[C@H]3C[C@@H]12", "note": "[tetracycline]", "values": [{"measurement": "Kd", "setting": "human RNase [7]", "value": 24.5, "unit": "µM"}]}
